Measurements published in publication PMC6394493 (Cancer Chemotherapy and Pharmacology, 2018).
Where two headings read alike, the source gives them in different places.

How the values were obtained:
[1] = Phase I dose escalation (3 + 3): DLTs, MTD, recommended dose; type: in vivo
Description: BEZ235 was administered orally as a single agent on a continuous qd or bid dosing schedule. […] Furthermore, in the previous study, a granule formulation (BEZ235 SDS sachet) was developed because of difficulties in swallowing the large size capsules of the investigational drug. The ingredients of this new formulation, which are dispensed as granules contained within a sachet, are essentially the same as the capsule. […] Decisions regarding dose escalation were based on the safety profile, particularly DLTs, observed in the first cycle of treatment for each patient.
Safety assessments consisted of monitoring and recording of all AEs, including laboratory abnormalities and vital signs. DLTs were defined as an AE or a laboratory abnormality assessed as related to the study drug and occurring within the first 28 days of treatment (Cycle 1), as defined in Supplemental Table S1.

[2] = Plasma pharmacokinetics (LC–MS/MS, non-compartmental analysis); type: in vivo, Japanese patients; conditions: for AUC(0-inf) / AUC(0-t) / Cmax / Tmax: human, plasma, oral; for AUC(0-inf): read-out: AUCinf, Median; for Cmax: read-out: Cmax, Median; for Tmax: read-out: Tmax, Median
Description: The PK parameters were determined by non-compartmental analysis using Phoenix WinNonlin 6.2® (Pharsight, Mountain View, CA).

[3] = 400 mg, Cycle 1 Day 1, 400 mg bid, n = 7
[4] = 400 mg, Cycle 1 Day 1, 400 mg qd, n = 3
[5] = 400 mg, Cycle 1 Day 8, 400 mg bid, n = 6
[6] = 400 mg, Cycle 1 Day 8, 400 mg qd, n = 3
[7] = 400 mg, Cycle 1 Day 28, 400 mg bid, n = 4
[8] = 400 mg, Cycle 1 Day 28, 400 mg qd, n = 3
[9] = 800 mg, Cycle 1 Day 1, 800 mg qd, n = 3
[10] = 800 mg, Cycle 1 Day 8, 800 mg qd, n = 3

Cn1c(=O)n(-c2ccc(C(C)(C)C#N)cc2)c2c3cc(-c4cnc5ccccc5c4)ccc3ncc21 [BEZ235]
recommended dose (RD) ([1]; human, in vivo, 28 days): 1000 mg | tolerability of 400 mg bid ([1]; in vivo): considered as a tolerable dose | maximum clinically tolerable dose ([1]; qd dosing schedule): 1200 mg | MTD ([1]; qd dosing, highest dose that causes DLT in no more than one out of six patients in Cycle 1): not reached | dose dependence of Cmax and AUC ([2]; 400 to 1400 mg qd): appeared to increase in a dose-dependent manner | inter-individual variability, coefficient of variation on the AUC and Cmax ([2]; at most of the visits and doses): greater than 100% | AUC(0-inf) ([2]; 400 mg, Cycle 1 Day 1, 400 mg bid, n = 2): 2000 ng·h/mL | AUC(0-t) ([2]; 400 mg, Cycle 1 Day 1, 400 mg bid, n = 4, read-out: AUC0 − 24, Median): 1760 ng·h/mL | AUC(0-t) ([2]; 400 mg, Cycle 1 Day 1, 400 mg bid, n = 7, read-out: AUClast, Median): 2280 ng·h/mL | Cmax [2, 3]: 301 ng/mL | Tmax [2, 3]: 6 h | AUC(0-inf) ([2]; 400 mg, Cycle 1 Day 1, 400 mg qd, n = 2): 978 ng·h/mL | AUC(0-t) ([2]; 400 mg, Cycle 1 Day 1, 400 mg qd, n = 3, read-out: AUC0 − 24, Median): 1040 ng·h/mL | AUC(0-t) ([2]; 400 mg, Cycle 1 Day 1, 400 mg qd, n = 3, read-out: AUClast, Median): 1040 ng·h/mL | Cmax [2, 4]: 135 ng/mL | Tmax [2, 4]: 4 h | AUC(0-inf) ([2]; 400 mg, Cycle 1 Day 8, 400 mg bid, n = 1): 2790 ng·h/mL | AUC(0-t) ([2]; 400 mg, Cycle 1 Day 8, 400 mg bid, n = 5, read-out: AUC0 − 24, Median): 10700 ng·h/mL | AUC(0-t) ([2]; 400 mg, Cycle 1 Day 8, 400 mg bid, n = 6, read-out: AUClast, Median): 9700 ng·h/mL | Cmax [2, 5]: 1050 ng/mL | Tmax [2, 5]: 4 h | AUC(0-inf) ([2]; 400 mg, Cycle 1 Day 8, 400 mg qd, n = 2): 14300 ng·h/mL | AUC(0-t) ([2]; 400 mg, Cycle 1 Day 8, 400 mg qd, n = 3, read-out: AUC0 − 24, Median): 7350 ng·h/mL | AUC(0-t) ([2]; 400 mg, Cycle 1 Day 8, 400 mg qd, n = 3, read-out: AUClast, Median): 7350 ng·h/mL | Cmax [2, 6]: 754 ng/mL | Tmax [2, 6]: 4 h | AUC(0-inf) ([2]; 400 mg, Cycle 1 Day 28, 400 mg bid, n = 1): 2660 ng·h/mL | AUC(0-t) ([2]; 400 mg, Cycle 1 Day 28, 400 mg bid, n = 3, read-out: AUC0 − 24, Median): 29400 ng·h/mL | AUC(0-t) ([2]; 400 mg, Cycle 1 Day 28, 400 mg bid, n = 4, read-out: AUClast, Median): 34100 ng·h/mL | Cmax [2, 7]: 3650 ng/mL | Tmax [2, 7]: 4 h | AUC(0-t) ([2]; 400 mg, Cycle 1 Day 28, 400 mg qd, n = 3, read-out: AUC0 − 24, Median): 8920 ng·h/mL | AUC(0-inf) [2, 8]: 10200 ng·h/mL | AUC(0-t) ([2]; 400 mg, Cycle 1 Day 28, 400 mg qd, n = 3, read-out: AUClast, Median): 8920 ng·h/mL | Cmax [2, 8]: 795 ng/mL | Tmax [2, 8]: 4 h | AUC(0-inf) ([2]; 800 mg, Cycle 1 Day 1, 800 mg qd, n = 1): 1490 ng·h/mL | AUC(0-t) ([2]; 800 mg, Cycle 1 Day 1, 800 mg qd, n = 3, read-out: AUC0 − 24, Median): 2560 ng·h/mL | AUC(0-t) ([2]; 800 mg, Cycle 1 Day 1, 800 mg qd, n = 3, read-out: AUClast, Median): 2560 ng·h/mL | Cmax [2, 9]: 154 ng/mL | Tmax [2, 9]: 8 h | AUC(0-inf) ([2]; 800 mg, Cycle 1 Day 8, 800 mg qd, n = 1): 19900 ng·h/mL | AUC(0-t) ([2]; 800 mg, Cycle 1 Day 8, 800 mg qd, n = 3, read-out: AUC0 − 24, Median): 17300 ng·h/mL | AUC(0-t) ([2]; 800 mg, Cycle 1 Day 8, 800 mg qd, n = 3, read-out: AUClast, Median): 17300 ng·h/mL | Cmax [2, 10]: 1170 ng/mL | Tmax [2, 10]: 6 h | AUC(0-inf) ([2]; 800 mg, Cycle 1 Day 28, 800 mg qd, n = 2): 13500 ng·h/mL | AUC(0-t) ([2]; 800 mg, Cycle 1 Day 28, 800 mg qd, n = 3, read-out: AUC0 − 24, Median): 25000 ng·h/mL | AUC(0-t) ([2]; 800 mg, Cycle 1 Day 28, 800 mg qd, n = 3, read-out: AUClast, Median): 24900 ng·h/mL
